The values below come from patent US4564639A, “N-(2,6-Difluorobenzoyl-N-'-(2-fluoro-4-halophenyl)urea” (priority 1982, dated 1986).

The term mortality denotes the percentage killed. For orientation: LD50 means the dose at which mortality reaches 50%. A high value points to a less toxic substance.

Data set [1] deals with Spodoptera litura. The experiment in a line: Insecticidal effect against Spodoptera litura, leaf spraying (Table 1, I). The data set is classed as in vivo. The settings on record: read-out: mortality (I, spraying concn.). On the procedure:
(§1) Insecticidal effect against Spodoptera litura
(a) The test compounds which comprise:
The above test compounds and control compounds were each processed into wettable powders in accordance with the same formula as in Example 9, followed by dilution with water to prepare emulsions containing 0.4 and 2 ppm, respectively. A spreader, Dyne® (produced by Takeda Chemical Industries, Japan), was added to the emulsions in the proportion of 0.03 volume % against the total volume, respectively, and 20 ml of each of the emulsions so obtained was sprayed by use of a spray gun (spraying pressure of 1 kg/cm^2) on seedlings (14 days after germination) of soybean grown in pots in a spray chamber. 2 hours after spraying, two true leaves were cut away and contained each in their respective ice-cream cup (diameter of 6 cm and depth of 4 cm), into which 10 third-instar larvae of Spodoptera litura was released. After the releasing of larvae, the cups were placed in a room (25° C.), and the number of larvae, […] was checked.
(§2) The mortalities in Test Examples 1 through 3 were calculated by the formula as mentioned below: [formula]

The test system of data set [2] is Spodoptera litura. In words: Insecticidal effect against Spodoptera litura, direct spraying on larvae (Table 1, II). In kind it is in vivo. The settings on record: read-out: mortality (II, spraying concn.). On the procedure: as §1
(b) By the same procedure as in Example 7, the test compounds comprising the compounds of the present invention, i.e. Compound Nos. 1, 2, 3 and 4, and control compounds, i.e. Compounds A through G, were each processed into emulsifiable concentrates, which were then diluted with water to produce the aqueous solutions (containing 0.03 % v/v of added spreader, Dyne® (produced by Takeda Chemical Industries, Japan)) containing 10 and 50 ppm of the test compounds, respectively. 20 ml of each of the aqueous solutions was sprayed on 10 third-instar larvae of Spodoptera litura placed in a cage of wire netting. 30 minutes after the spraying, the larvae were taken out of the cage of wire netting and placed in an ice cream cup (diameter of 6 cm and depth of 4 cm) containing soybean leaves, and a number of dead larvae was checked in accordance with the same method as the examination method as stated under (a) except that the larvae were allowed to stand for 48 hours in place of 96 hours.
as §2

The next data set relates to Chilo suppressalis. In words: Insecticidal effect against Chilo suppressalis, dipped rice seedlings. The data set is classed as in vivo. The settings on record: 96 h, read-out: Mortality, % (spraying concn.). On the procedure:
as §2
Insecticidal effect against Chilo suppressalis
By the same procedure as in Example 9, the test compounds comprising the compounds of the present invention, i.e. Compound Nos. 1, 2, 3 and 4, and control compounds, i.e. Compounds A through G, were processed into wettable powder, respectively, and the aqueous solutions of 0.4 and 2 ppm in concentration were prepared therefrom by the same method as stated under (a) of Test Example 1, whereby 10 rice seedlings (the height of a plant of 2 cm) were dipped in each of the insecticide solutions for 30 minutes. The seedlings thus treated were placed in the respective glass containers (diameter of 2 cm and depth of 5 cm), into which 10 third-instar larvae of Chilo suppressalis were released. The containers were covered with aluminum foil and allowed to stand in a room (25° C.), and a number of dead larvae 4 days after the larvae were released was checked.

The next data set relates to Plutella xylostella. In words: Insecticidal effect against Plutella xylostella, sprayed radish seedlings. The data set is classed as in vivo. On the procedure:
as §2
Insecticidal effect against Plutella xylostella
By the same procedure as in Example 9, the test compounds comprising the compounds of the present invention, i.e., Compound Nos. 1, 2, 3 and 4, and control compounds, i.e. Compounds A through G, were processed into wettable powder, and the aqueous solutions of 50 ppm in concentration were prepared therefrom by the same method as stated under (a) of Test Example 1. 20 ml of each of the aqueous solutions was sprayed on seedlings of radish (25 days after germination) grown in pots in accordance with the same method as described under (a) of Test Example 1. 2 hours after the spraying, two true leaves were cut away and contained in their respective ice cream cups (diameter of 6 cm and depth of 4 cm), into which 10 second-instar larvae of Plutella xylostella were released. After the larvae were released, the above-mentioned cups were placed in a room (25° C.), and a number of dead larvae after 48 hours was checked.

Data set [3] has as its system Spodoptera litura. In words: Insecticidal effect against Spodoptera litura, soil treatment with granules (Table 1, III). The following applies: 96 h, 250 mg of 2 weight % granules in soil of potted soybean, leaves cut 10 days after treatment, third-instar larvae, read-out: mortality (III, treatment amount). The data set is classed as in vivo. On the procedure:
as §1
(c) Using the compounds of the present invention, i.e. Compound Nos. 1, 2, 3 and 4, and control compounds, i.e. Compounds A through G, as the test compounds, granules containing 2 weight % of the test compounds were prepared by the same procedure as in Example 13, and 250 and 500 mg of each of the granules were admixed, for the purpose of treatment, into the soil around roots of soybean plants grown in pots (diameter of 9 cm), respectively. The pots so treated were placed in a glass room (28° C.), and 10 days after the treatment, two true leaves were cut away and contained each in ice cream cups (diameter of 6 cm and depth of 4 cm). 10 third-instar larvae of Spodoptera litura were released into each of the ice cream cups, and a number of dead larvae was checked in accordance with the same method as the examination method as stated under (a).
as §2

Another data set can be described thus: Oral toxicity in mice. The following applies: mouse, in vivo.
A further data set in a line: Toxicity to fishes. Set-up: species or system Orizias latipes. The following applies: in vivo; 72 hours later, orange-red killifish; read-out: TLm (the concentration at which 50% of the test fish dies).
The test system of a further data set is insect. The experiment in a line: Insecticidal and ovicidal effect (general statement). In kind it is in vivo. The settings on record: in words.
The test system of a further data set is plant body. The experiment in a line: Penetration into the plant body (general statement). The settings on record: in words.
[4] abbreviates: 0.4 ppm, wettable powder emulsion sprayed on soybean seedlings, third-instar larvae, 96 hours.
Setting [5] is: 2 ppm, wettable powder emulsion sprayed on soybean seedlings, third-instar larvae, 96 hours.
[6] abbreviates: emulsifiable concentrate solution sprayed on third-instar larvae, 48 hours.
[7] abbreviates: 0.4 ppm, rice seedlings dipped 30 minutes, third-instar larvae, 4 days.
Where [8] appears, read: 2 ppm, rice seedlings dipped 30 minutes, third-instar larvae, 4 days.
[9] abbreviates: 50 ppm sprayed on radish seedlings, second-instar larvae, 48 hours, read-out: Mortality, %.

Where two headings read alike, the source gives them in different places.

Consider `O=C(NC(=O)c1c(F)cccc1F)Nc1ccc(Cl)cc1` [Compound A, N-2,6-difluorobenzoyl-N'-4-chlorophenylurea], for which the mortality at 0.4 ppm in the data set with Spodoptera litura [1] (setting [4]) was 20%; in the data set with Chilo suppressalis (setting [7]), 5%. Also, the mortality at 2 ppm came to 30% with Spodoptera litura [1] (setting [5]) and 40% with Chilo suppressalis (setting [8]). The mortality at 10 ppm with Spodoptera litura [2] (10 ppm, emulsifiable concentrate solution sprayed on third-instar larvae, 48 hours) is 0%. The figures for the mortality at 50 ppm with Spodoptera litura [2] (setting [6]) and with Plutella xylostella (48 h) were 10% and 20%, respectively.
Consider `O=C(NC(=O)c1c(Cl)cccc1Cl)Nc1ccc(Cl)cc1Cl` [Compound B, N-2,6-dichlorobenzoyl-N'-2,4-dichlorophenylurea], for which the mortality at 250 mg in the data set on Spodoptera litura [3] was found to be 0%. Besides, the mortality at 0.4 ppm with Chilo suppressalis (setting [7]) was 0%. Further, the mortality at 2 ppm with Chilo suppressalis (setting [8]) was found to be 0%. For the same compound, in the data set with Plutella xylostella (setting [9]), the mortality at 50 ppm was 0%.
Regarding `O=C(NC(=O)c1c(Cl)cccc1Cl)Nc1ccc(Cl)c(F)c1` [Compound C, N-2,6-dichlorobenzoyl-N'-3-fluoro-4-chlorophenylurea], the mortality at 0.4 ppm in the data set with Spodoptera litura [1] (setting [4]) came out at 20%; in the data set with Chilo suppressalis (setting [7]), 0%. For the same compound, the mortality at 2 ppm came to 30% in the data set with Spodoptera litura [1] (setting [5]) and 0% in the data set on Chilo suppressalis (setting [8]). In addition, the mortality at 250 mg in the data set on Spodoptera litura [3] came out at 0%. Also, the mortality at 50 ppm with Plutella xylostella (setting [9]) came out at 10%.
On to `O=C(NC(=O)c1c(F)cccc1F)Nc1ccc(Cl)c(F)c1` [Compound D, N-2,6-difluorobenzoyl-N'-3-fluoro-4-chlorophenylurea], for which the mortality at 0.4 ppm with Spodoptera litura [1] (setting [4]) was determined as 25%; in the data set with Chilo suppressalis (setting [7]), 10%. Also, the mortality at 2 ppm in the data set on Spodoptera litura [1] (setting [5]) and in the data set with Chilo suppressalis (setting [8]) was 45% throughout. Moreover, the mortality at 50 ppm in the data set on Spodoptera litura [2] (setting [6]) was determined as 30%; with Plutella xylostella (setting [9]), 45%. For the same compound, the mortality at 250 mg in the data set on Spodoptera litura [3] came out at 0%.
In the case of `O=C(NC(=O)c1c(F)cccc1F)Nc1ccc(Cl)c(Cl)c1` [Compound E, N-2,6-difluorobenzoyl-N'-3,4-dichlorophenylurea], the mortality at 0.4 ppm is 20% in the data set with Spodoptera litura [1] (setting [4]) and 0% with Chilo suppressalis (setting [7]). The results for the mortality at 2 ppm with Spodoptera litura [1] (setting [5]) and in the data set on Chilo suppressalis (setting [8]) were 40% and 0%, respectively. Further, the mortality at 250 mg with Spodoptera litura [3] is 0%. Besides, the mortality at 50 ppm in the data set on Plutella xylostella (setting [9]) was found to be 40%.
`O=C(NC(=O)c1c(Cl)cccc1Cl)Nc1ccc(F)cc1F` [Compound F, N-2,6-dichlorobenzoyl-N'-2,4-difluorophenylurea]: the mortality at 250 mg in the data set on Spodoptera litura [3] stood at 0%. Further, in the data set on Chilo suppressalis (setting [7]), the mortality at 0.4 ppm amounted to 0%. The mortality at 2 ppm in the data set with Chilo suppressalis (setting [8]) was 0%. In addition, in the data set on Plutella xylostella (setting [9]), the mortality at 50 ppm turned out to be 20%.
As to `O=C(NC(=O)c1c(F)cccc1F)Nc1ccc(I)c(F)c1` [Compound G, N-2,6-difluorobenzoyl-N'-3-fluoro-4-iodophenylurea], the mortality at 0.4 ppm with Spodoptera litura [1] (setting [4]) worked out at 5%; in the data set with Chilo suppressalis (setting [7]) it was 10%. In addition, the figures for the mortality at 2 ppm in the data set on Spodoptera litura [1] (setting [5]) and in the data set with Chilo suppressalis (setting [8]) were 35% and 55%, respectively. In addition, the mortality at 50 ppm came to 5% in the data set with Spodoptera litura [2] (setting [6]) and 50% with Plutella xylostella (setting [9]). Besides, the mortality at 250 mg in the data set with Spodoptera litura [3] worked out at 0%.
Regarding `O=C(NC(=O)c1c(F)cccc1F)Nc1ccc(Cl)cc1F` [Compound No. 1, N-2,6-Difluorobenzoyl-N'-2-fluoro-4-chlorophenylurea], the mortality at 10 ppm in the data set with Spodoptera litura [2] (48 h) came to 60%. Besides, in the data set on Chilo suppressalis, the mortality at 0.4 ppm worked out at 80% and the mortality at 2 ppm came out at 100%. Besides, the mortality at 50 ppm with Plutella xylostella (setting [9]) came to 100%. Besides, in the data set “Oral toxicity in mice”, the LD50 was at least 3000 mg/kg. For the same compound, the LC50 at 72 h in “Toxicity to fishes” is at least 10 µg/mL. In addition, in the data set with insect, the “insecticidal and ovicidal effect” value is “excellent insecticidal and ovicidal effect”.
Consider `O=C(NC(=O)c1c(F)cccc1F)Nc1ccc(Br)cc1F` [Compound No. 2, N-2,6-difluorobenzoyl-N'-2-fluoro-4-bromophenylurea], for which the mortality at 10 ppm with Spodoptera litura [2] (48 h) was 60%. In addition, the mortality at 250 mg in the data set with Spodoptera litura [3] stood at 80%. Besides, in the data set on Chilo suppressalis, the mortality at 0.4 ppm amounted to 70% and the mortality at 2 ppm came out at 100%. Also, the mortality at 50 ppm in the data set with Plutella xylostella (setting [9]) came to 100%. In addition, the LD50 in “Oral toxicity in mice” was at least 3000 mg/kg. For the same compound, the “insecticidal and ovicidal effect” value in the data set on insect is “excellent insecticidal and ovicidal effect”.
With `O=C(NC(=O)c1c(F)cccc1F)Nc1ccc(F)cc1F` [Compound No. 3, N-2,6-difluorobenzoyl-N'-2,4-difluorophenyl urea], the mortality at 0.4 ppm in the data set with Spodoptera litura [1] (in Glycine max, 96 h) was 80%. Moreover, the mortality at 10 ppm in the data set with Spodoptera litura [2] (48 h) came out at 35%. Moreover, in the data set on Spodoptera litura [3], the mortality at 250 mg is 100%. Further, in the data set with Chilo suppressalis, the mortality at 0.4 ppm came out at 40% and the mortality at 2 ppm stood at 80%. Further, the mortality at 50 ppm in the data set on Plutella xylostella (setting [9]) was determined as 95%. Further, the median lethal dose (LD50) in “Oral toxicity in mice” is at least 3000 mg/kg. Besides, in the data set on plant body, the “action to penetrate into the plant body” value was “excellent action to penetrate into the plant body”.
Regarding `O=C(NC(=O)c1c(F)cccc1F)Nc1ccc(I)cc1F` [Compound No. 4, N-2,6-difluorobenzoyl-N'-2-fluoro-4-iodophenylurea], in the data set on Spodoptera litura [1] (in Glycine max, 96 h), the mortality at 0.4 ppm was determined as 100% and the mortality at 2 ppm was 100%. In the data set on Spodoptera litura [2] (48 h), the mortality at 10 ppm was determined as 65%. Further, the mortality at 250 mg with Spodoptera litura [3] worked out at 55%. In the data set with Chilo suppressalis, the mortality at 0.4 ppm is 75% and the mortality at 2 ppm worked out at 100%. In addition, in the data set on Plutella xylostella (setting [9]), the mortality at 50 ppm worked out at 100%. In addition, the LD50 in “Oral toxicity in mice” is at least 3000 mg/kg.
